The values below come from ChEMBL document CHEMBL1129185, “The design and synthesis of non-peptide ligands with affinity and selectivity for tachykinin receptors” (Bioorg Med Chem Lett, 1996).

In one experiment the target is T1, Neuromedin-K receptor (Cavia porcellus, UniProt P30098).
T1 sequence (P30098 whole entry): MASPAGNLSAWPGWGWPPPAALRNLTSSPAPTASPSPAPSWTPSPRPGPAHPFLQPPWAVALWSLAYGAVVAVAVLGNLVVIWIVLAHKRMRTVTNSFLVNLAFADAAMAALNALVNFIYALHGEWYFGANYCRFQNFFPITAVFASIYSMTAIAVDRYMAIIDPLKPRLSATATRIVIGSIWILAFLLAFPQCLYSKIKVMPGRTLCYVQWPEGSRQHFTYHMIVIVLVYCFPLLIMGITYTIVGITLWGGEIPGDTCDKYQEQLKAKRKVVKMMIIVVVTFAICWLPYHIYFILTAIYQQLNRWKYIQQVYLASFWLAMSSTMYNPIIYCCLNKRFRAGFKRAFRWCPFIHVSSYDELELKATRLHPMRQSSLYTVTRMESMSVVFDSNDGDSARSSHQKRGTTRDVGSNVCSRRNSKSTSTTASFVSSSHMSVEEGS
Kind of experiment: Inhibitory activity against binding of [125I][MePhe7]-NKB SP to tachykinin NK-3 receptor in guinea pig cortical membranes. Format: cell membranes.

For experiment [1], the target named is T2, Substance-P receptor (Homo sapiens, UniProt P25103). Kind of experiment: Inhibitory activity against binding of [125I]Bolton-Hunter SP to tachykinin NK-1 receptor in human lymphoma IM9 cells at concentration 10 uM. Format: cell-based. As to conditions: IM-9.
T2 sequence (P25103 whole entry): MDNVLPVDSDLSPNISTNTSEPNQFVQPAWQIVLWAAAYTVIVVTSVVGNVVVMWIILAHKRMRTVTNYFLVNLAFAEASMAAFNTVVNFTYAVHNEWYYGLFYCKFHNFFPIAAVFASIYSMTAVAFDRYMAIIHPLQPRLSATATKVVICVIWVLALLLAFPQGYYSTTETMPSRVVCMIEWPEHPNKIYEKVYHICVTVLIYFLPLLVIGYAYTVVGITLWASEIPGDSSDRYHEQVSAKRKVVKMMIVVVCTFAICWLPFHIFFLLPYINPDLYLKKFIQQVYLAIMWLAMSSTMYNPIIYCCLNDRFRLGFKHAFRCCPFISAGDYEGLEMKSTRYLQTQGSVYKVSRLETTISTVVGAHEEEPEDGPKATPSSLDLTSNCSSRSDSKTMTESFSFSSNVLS
In experiment [2] the target is T3, Neuromedin-K receptor (Cavia porcellus) (UniProt P30098).
T3 sequence (whole entry): T1 sequence (P30098 whole entry)
The experiment can be described thus: Inhibitory activity against binding of [125I][MePhe7]-NKB SP to tachykinin NK-3 receptor in guinea pig cortical membranes at concentration 10 uM. In kind it is cell membranes.

Experiment [3] concerns the target T2, Substance-P receptor. Kind of experiment: Inhibitory activity against binding of [125I]Bolton-Hunter SP to tachykinin NK-1 receptor in human lymphoma IM9 cells. Format: cell-based, IM-9.
Experiment [4] deals with T2, Substance-P receptor. Kind of experiment: Inhibitory activity against binding of [125I]Bolton-Hunter SP to tachykinin NK-1 receptor in human lymphoma IM9 cells. In kind it is cell-based, IM-9.

Peptide text beside a SMILES is read from it.

Consider `O=C1C(Cc2ccccc2)OCCN1Cc1ccccc1` (configuration not stated), for which the IC50 (usually the concentration that inhibits the measured activity by half) at Neuromedin-K receptor is 4.09 µM. The inhibition (as a rule, the drop in the measured response relative to a control, in per cent) on Substance-P receptor [1] was less than 10%.

Consider `NC(=O)[C@H](Cc1ccccc1)NC(=O)[C@H](Cc1c[nH]c2ccccc12)NC(=O)OCc1ccccc1` (HELM PEPTIDE1{[O=C(OCc1ccccc1)[*:2]].W.F.[am]}$$$$V2.0), for which, in experiment [2], the inhibition is less than 10%. In addition, the IC50 at Substance-P receptor [3] came out at 4.2 µM.

For the compound `CSCC[C@H](NC(=O)[C@H](CC(C)C)NC(=O)CNC(=O)[C@H](Cc1ccccc1)NC(=O)[C@H](Cc1ccccc1)NC(=O)[C@H](CCC(N)=O)NC(=O)[C@H](CCC(N)=O)NC(=O)[C@@H]1CCCN1C(=O)[C@H](CCCCN)NC(=O)[C@@H]1CCCN1C(=O)[C@@H](N)CCCN=C(N)N)C(N)=O` [SUBSTANCE P], the IC50 on Neuromedin-K receptor was 0.717 µM. `O=C1C(Cc2c[nH]c3ccccc23)OCCN1Cc1ccccc1` (configuration not stated) yielded an IC50 on Substance-P receptor [4] of 3.5 µM. Besides, the inhibition in experiment [2] was less than 10%.
